Here are results for 1 compound from ChEMBL document CHEMBL1155857, “Benzodiazepine ligands can act as allosteric modulators of the Type 1 cholecystokinin receptor” (Bioorg Med Chem Lett, 2008).

Molecules are shown by their SMILES.

The target in the test is T1, Cholecystokinin receptor type A (Rattus norvegicus) (UniProt P30551).
T1 sequence (whole entry): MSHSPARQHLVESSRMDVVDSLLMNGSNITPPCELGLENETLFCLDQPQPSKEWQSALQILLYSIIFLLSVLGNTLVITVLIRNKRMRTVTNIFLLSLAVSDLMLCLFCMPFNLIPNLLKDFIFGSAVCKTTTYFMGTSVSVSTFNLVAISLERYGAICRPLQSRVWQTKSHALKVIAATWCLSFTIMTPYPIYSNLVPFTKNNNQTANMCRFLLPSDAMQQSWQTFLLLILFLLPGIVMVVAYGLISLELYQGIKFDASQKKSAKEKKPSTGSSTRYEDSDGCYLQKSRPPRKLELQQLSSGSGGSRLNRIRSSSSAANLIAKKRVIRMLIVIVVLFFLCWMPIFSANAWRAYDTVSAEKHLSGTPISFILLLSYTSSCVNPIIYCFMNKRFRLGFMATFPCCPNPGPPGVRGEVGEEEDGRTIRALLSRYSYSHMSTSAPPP
Put plainly: Displacement of [125I]CCK from rat CCK1 receptor expressed in CHO cells. Type of test: cell-based. In general terms: Loss of bound radioactivity is the signal in a displacement assay; it reports binding, not function.

Usually pKb stands for the Kb on a negative log10 scale, so that one unit is a factor of ten. A low value points to a high Kb. The compound `CN1C(=O)[C@@H](NC(=O)c2cc3ccccc3[nH]2)N=C(c2ccccc2)c2ccccc21` showed a pKb of 8.35.
